# Test results from patent US20180303101A1, “METHOD OF IMPROVING GRASS QUALITY” (priority 2004, published 2018).
# System: creeping bentgrass (variety Penncross) turf
# Experiment: Bentgrass color rating after foliar spray (Example 4)
# Type: in vivo
# Conditions: 6 weeks after treatment; iprodione 4 oz/1000 sq. ft.; Pigment Green 7 6.8 or 13.6 g/1000 sq. ft. in combination, 13.6 g alone
# Excerpt: Pigment Green 7 was suspended in water and applied as a foliar spray to creeping bentgrass (variety Penncross) turf with a pressurized sprayer at a spray volume of 1.37 gallons of water per 1000 sq. ft. (ca. 560 l/ha). Pigment Green 7 was applied at rates of 6.8, 13.9, and 20.4 grams per 1000 sq. ft. (0.73, 1.5, and 2.2 kg/ha, respectively). Each treatment was replicated 4 times. An untreated plot was included and was also replicated four times. The average color of the bentgrass was visually evaluated at 6 weeks after treatment. Color was evaluated on a qualitative scale from 1-9, with 9 being the highest quality and 1 the lowest quality.
# The procedure of Example 2 was repeated using iprodione fungicide (in the form of 26 GT brand iprodione fungicide) at 4 oz/1000 sq. ft. (ca. 1.3 mL/m2), iprodione at 4 oz/1000 sq. ft. (ca. 1.3 mL/m2) plus Pigment Green 7 at 6.8 g/1000 sq. ft. (0.73 kg/ha), iprodione at 4 oz/1000 sq. ft. plus Pigment Green 7 at 13.6 g/1000 sq. ft. (1.5 kg/ha), and Pigment Green 7 at 13.6 g/1000 sq. ft. (1.5 kg/ha). At 6 weeks after treatment, the color ratings were as follows.
smiles,measurement,value
"CC(C)NC(=O)N1CC(=O)N(c2cc(Cl)cc(Cl)c2)C1=O [iprodione, 3-(3,5-dichlorophenyl)-N-(l-methylethyl)-2,4-dioxo-1-imidazolidinecarbox-amide, reference compound]",Color rating versus untreated check,not significantly different than the untreated check
